Data taken from PubChem BioAssay (NCI).
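Tested at 5 concentrations; 48 h exposure; 96-well plates; endpoints linearly interpolated, else capped at highest concentration. The concentration for full growth arrest is given as TGI.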

Legend:
Test in all cases: NCI tumour cell line growth inhibition, 48 h
[1] = system: CAKI-1 renal
[2] = system: MOLT-4 leukemia
[3] = system: K-562 leukemia
[4] = system: UACC-62 melanoma
[5] = system: MDA-N
[6] = system: HS 578T breast
[7] = system: HOP-62 NSCLC
[8] = system: PC-3 prostate
[9] = system: SK-MEL-5 melanoma
[10] = system: A549 NSCLC
[11] = system: BT-549 breast
[12] = system: M14 melanoma
[13] = system: MDA-MB-435
[14] = system: A498 renal
[15] = system: HOP-92 NSCLC
[16] = system: RPMI-8226 leukemia
[17] = system: OVCAR-3 ovarian
[18] = system: SW-620 colon
[19] = system: SNB-19 CNS

## COc1cc2cc(C(=O)N3CC(CCl)c4c3cc([N+](=O)[O-])c3ccccc43)[nH]c2c(OC)c1OC (stereo not drawn)
[1]
  TGI: > 100 µM
[2]
  TGI: > 100 µM
[3]
  TGI: > 100 µM
[4]
  TGI: > 100 µM
[5]
  TGI: > 100 µM
[6]
  TGI: > 100 µM
[7]
  TGI: > 100 µM
[8]
  TGI: > 100 µM
[9]
  TGI: > 100 µM
[10]
  TGI: > 100 µM
[11]
  TGI: > 100 µM
[12]
  TGI: > 100 µM
[13]
  TGI: > 100 µM
[14]
  TGI: 97.6 µM
[15]
  TGI: > 100 µM
[16]
  TGI: > 100 µM
[17]
  TGI: > 100 µM
[18]
  TGI: > 100 µM
[19]
  TGI: > 100 µM

## CC(C)(C)OC(=O)N(O)[C@@H]1C=C[C@H](n2cnc3c(N)ncnc32)C1
[1]
  TGI: > 100 µM
[2]
  TGI: > 100 µM
[3]
  TGI: > 100 µM
[4]
  TGI: > 100 µM
[5]
  TGI: > 100 µM
[6]
  TGI: > 100 µM
[7]
  TGI: > 100 µM
[8]
  TGI: > 100 µM
[9]
  TGI: > 100 µM
[10]
  TGI: > 100 µM
[11]
  TGI: > 100 µM
[12]
  TGI: > 100 µM
[13]
  TGI: > 100 µM
[14]
  TGI: > 100 µM
[15]
  TGI: > 100 µM
[16]
  TGI: > 100 µM
[17]
  TGI: > 100 µM
[18]
  TGI: > 100 µM
[19]
  TGI: > 100 µM

## C#CCOC(=O)c1ccccc1O
[1]
  TGI: > 100 µM
[2]
  TGI: > 100 µM
[3]
  TGI: > 100 µM
[4]
  TGI: > 100 µM
[5]
  TGI: > 100 µM
[6]
  TGI: > 100 µM
[7]
  TGI: > 100 µM
[8]
  TGI: > 100 µM
[9]
  TGI: > 100 µM
[11]
  TGI: > 100 µM
[12]
  TGI: > 100 µM
[13]
  TGI: > 100 µM
[14]
  TGI: > 100 µM
[15]
  TGI: > 100 µM
[16]
  TGI: > 100 µM
[18]
  TGI: > 100 µM
[19]
  TGI: > 100 µM

## COc1ccc(CN2C[C@H]3[C@@H](CC(=O)O[C@H]3C)CC2=O)cc1
[1]
  TGI: > 100 µM
[2]
  TGI: > 100 µM
[3]
  TGI: > 100 µM
[4]
  TGI: > 100 µM
[5]
  TGI: > 100 µM
[6]
  TGI: > 100 µM
[7]
  TGI: > 100 µM
[8]
  TGI: > 100 µM
[9]
  TGI: > 100 µM
[10]
  TGI: > 100 µM
[11]
  TGI: > 100 µM
[12]
  TGI: > 100 µM
[13]
  TGI: > 100 µM
[14]
  TGI: > 100 µM
[15]
  TGI: > 100 µM
[16]
  TGI: > 100 µM
[17]
  TGI: > 100 µM
[18]
  TGI: > 100 µM
[19]
  TGI: > 100 µM

## C=CCCCC1CCCNC1=O (stereo not drawn)
[1]
  TGI: > 100 µM
[2]
  TGI: > 100 µM
[3]
  TGI: > 100 µM
[4]
  TGI: > 100 µM
[5]
  TGI: > 100 µM
[6]
  TGI: > 100 µM
[7]
  TGI: > 100 µM
[8]
  TGI: > 100 µM
[9]
  TGI: > 100 µM
[10]
  TGI: > 100 µM
[11]
  TGI: > 100 µM
[12]
  TGI: > 100 µM
[13]
  TGI: > 100 µM
[14]
  TGI: > 100 µM
[15]
  TGI: > 100 µM
[16]
  TGI: > 100 µM
[17]
  TGI: > 100 µM
[18]
  TGI: > 100 µM
[19]
  TGI: > 100 µM

## CSc1c(C(=O)Nc2ccc(Cl)cc2)c(N)nn1-c1ccccc1
[1]
  TGI: > 100 µM
[2]
  TGI: > 100 µM
[3]
  TGI: > 100 µM
[4]
  TGI: > 100 µM
[5]
  TGI: > 100 µM
[6]
  TGI: > 100 µM
[7]
  TGI: > 100 µM
[8]
  TGI: > 100 µM
[9]
  TGI: > 100 µM
[10]
  TGI: > 100 µM
[11]
  TGI: > 100 µM
[12]
  TGI: > 100 µM
[13]
  TGI: > 100 µM
[14]
  TGI: > 100 µM
[15]
  TGI: > 100 µM
[16]
  TGI: > 100 µM
[17]
  TGI: > 100 µM
[18]
  TGI: > 100 µM
[19]
  TGI: > 100 µM

## O=C(/C=C(\O)c1ccc(Cl)cc1)C(=O)N=Nc1c(O)[nH]c2ccc(Br)cc12
[1]
  TGI: > 100 µM
[2]
  TGI: 4.85 µM
[3]
  TGI: 45.8 µM
[4]
  TGI: > 100 µM
[5]
  TGI: > 100 µM
[6]
  TGI: > 100 µM
[7]
  TGI: > 100 µM
[8]
  TGI: > 100 µM
[9]
  TGI: > 100 µM
[10]
  TGI: > 100 µM
[11]
  TGI: > 100 µM
[12]
  TGI: > 100 µM
[13]
  TGI: > 100 µM
[14]
  TGI: 74.3 µM
[15]
  TGI: > 100 µM
[16]
  TGI: 92.3 µM
[17]
  TGI: 95.9 µM
[18]
  TGI: > 100 µM
[19]
  TGI: > 100 µM

## CCCCON1C[C@@H](O)C(O)[C@@H](O)C1 (stereo partly drawn)
[1]
  TGI: > 100 µM
[2]
  TGI: > 100 µM
[3]
  TGI: > 100 µM
[4]
  TGI: > 100 µM
[5]
  TGI: > 100 µM
[6]
  TGI: > 100 µM
[7]
  TGI: > 100 µM
[8]
  TGI: > 100 µM
[9]
  TGI: > 100 µM
[10]
  TGI: > 100 µM
[11]
  TGI: > 100 µM
[12]
  TGI: > 100 µM
[13]
  TGI: > 100 µM
[14]
  TGI: > 100 µM
[15]
  TGI: > 100 µM
[16]
  TGI: > 100 µM
[17]
  TGI: > 100 µM
[18]
  TGI: > 100 µM
[19]
  TGI: > 100 µM

## C=CC(Cl)(CBr)CCC(Br)=C(C)C (stereo not drawn)
[1]
  TGI: 21.2 µM
[2]
  TGI: > 100 µM
[3]
  TGI: > 100 µM
[4]
  TGI: 36 µM
[5]
  TGI: 40.8 µM
[6]
  TGI: 76.2 µM
[7]
  TGI: > 100 µM
[8]
  TGI: 52.7 µM
[9]
  TGI: 33.7 µM
[10]
  TGI: > 100 µM
[11]
  TGI: 44.4 µM
[12]
  TGI: > 100 µM
[13]
  TGI: 46.7 µM
[14]
  TGI: > 100 µM
[15]
  TGI: 35.2 µM
[16]
  TGI: 54.5 µM
[17]
  TGI: 55.3 µM
[18]
  TGI: 29.2 µM
[19]
  TGI: > 100 µM

## COc1cc(/C=C2\C[C@H]3[C@@H]4CC=C5C[C@@H](O)CC[C@]5(C)[C@H]4CC[C@]3(C)[C@H]2O)cc(OC)c1OC
[1]
  TGI: > 100 µM
[2]
  TGI: 91.4 µM
[3]
  TGI: > 100 µM
[4]
  TGI: 39.3 µM
[5]
  TGI: > 100 µM
[6]
  TGI: > 100 µM
[7]
  TGI: 41.3 µM
[8]
  TGI: 92.6 µM
[9]
  TGI: 21.5 µM
[10]
  TGI: > 100 µM
[11]
  TGI: 56.8 µM
[12]
  TGI: 61.7 µM
[13]
  TGI: 87.2 µM
[14]
  TGI: 80.6 µM
[15]
  TGI: 65.8 µM
[16]
  TGI: > 100 µM
[17]
  TGI: 88 µM
[18]
  TGI: > 100 µM
[19]
  TGI: > 100 µM

## COc1cc(N=CN(C)C)c2ncccc2c1
[1]
  TGI: > 100 µM
[2]
  TGI: > 100 µM
[3]
  TGI: 47 µM
[4]
  TGI: > 100 µM
[5]
  TGI: 56 µM
[6]
  TGI: > 100 µM
[7]
  TGI: > 100 µM
[8]
  TGI: > 100 µM
[9]
  TGI: > 100 µM
[10]
  TGI: > 100 µM
[11]
  TGI: > 100 µM
[12]
  TGI: > 100 µM
[13]
  TGI: > 100 µM
[14]
  TGI: > 100 µM
[15]
  TGI: > 100 µM
[16]
  TGI: > 100 µM
[17]
  TGI: > 100 µM
[19]
  TGI: > 100 µM

## COC1=C2CC(C)CC(OC)[C@@H](OC(=O)CCN)[C@H](C)/C=C(\C)C(OC(N)=O)C(OC)/C=C\C=C(/C)C(=O)NC(=CC1=O)C2=O (stereo partly drawn)
[1]
  TGI: 17.7 µM
[2]
  TGI: 2.53 µM
[4]
  TGI: 4.34 µM
[5]
  TGI: 12.7 µM
[6]
  TGI: 16.9 µM
[7]
  TGI: 15.4 µM
[8]
  TGI: 15.1 µM
[9]
  TGI: 15.2 µM
[10]
  TGI: 29.2 µM
[11]
  TGI: 16.9 µM
[12]
  TGI: 19.5 µM
[13]
  TGI: 6.96 µM
[14]
  TGI: 31.2 µM
[15]
  TGI: 2.05 µM
[16]
  TGI: 14.5 µM
[17]
  TGI: 8.19 µM
[18]
  TGI: 1.48 µM
[19]
  TGI: 20.4 µM

## O=C(O)CN1CCNCCN(CP(=O)(O)O)CC1
[1]
  TGI: > 100 µM
[2]
  TGI: > 100 µM
[3]
  TGI: > 100 µM
[4]
  TGI: > 100 µM
[5]
  TGI: > 100 µM
[6]
  TGI: > 100 µM
[7]
  TGI: > 100 µM
[8]
  TGI: > 100 µM
[9]
  TGI: > 66.5 µM
[10]
  TGI: > 100 µM
[11]
  TGI: > 100 µM
[12]
  TGI: > 100 µM
[13]
  TGI: > 100 µM
[14]
  TGI: 99.1 µM
[15]
  TGI: > 100 µM
[16]
  TGI: > 100 µM
[17]
  TGI: > 100 µM
[18]
  TGI: > 100 µM
[19]
  TGI: > 100 µM
